Drawing on US10829483B2, “Thiophene, manufacturing method thereof, and pharmaceutical application of same” (CSTONE PHARMACEUTICAL (SUZHOU) CO., LTD., priority 2016, dated 2020), this text covers IC50 for 70 compounds.

Bounds are passed on as bounds.

Chain of URAT-1 (uric acid transporter) (Q96S37 whole entry): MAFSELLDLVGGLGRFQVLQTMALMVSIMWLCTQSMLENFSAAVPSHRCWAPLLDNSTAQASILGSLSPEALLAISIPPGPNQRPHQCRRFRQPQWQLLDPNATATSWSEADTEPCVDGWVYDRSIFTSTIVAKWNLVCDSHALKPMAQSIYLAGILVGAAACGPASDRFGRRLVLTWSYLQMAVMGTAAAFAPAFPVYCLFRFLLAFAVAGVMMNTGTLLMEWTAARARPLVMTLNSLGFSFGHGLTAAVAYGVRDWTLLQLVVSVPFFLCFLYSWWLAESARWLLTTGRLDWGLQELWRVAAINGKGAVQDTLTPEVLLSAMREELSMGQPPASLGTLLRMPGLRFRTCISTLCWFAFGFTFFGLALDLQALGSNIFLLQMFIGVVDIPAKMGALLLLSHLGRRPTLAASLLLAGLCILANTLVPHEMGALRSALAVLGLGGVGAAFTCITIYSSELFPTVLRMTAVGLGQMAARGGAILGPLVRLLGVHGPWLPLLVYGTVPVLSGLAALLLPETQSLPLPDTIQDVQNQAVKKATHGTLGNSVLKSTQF

The test addresses URAT-1 (uric acid transporter) (Homo sapiens (Human), UniProt Q96S37). The test can be described thus: Inhibition of 14C uric acid transport by HEK293 cell line stably transfected with the URAT-1 gene. The test is classed as cell-based. As to conditions: URAT-1 (HEK293) cells; 14C-labelled uric acid 50 um, 10 min at 37° C.; read-out: IC50 (inhibition against URAT-1). As to the method: Determination of the IC50 value of the inhibitory activity of the compound against uric acid reabsorption by the HEK293 cell line stably transfected with the URAT-1 (uric acid transporter) gene.
URAT-1 (HEK293) cell line: the HEK293 cell line stably transfected with the URAT-1 gene
cell culture medium: DMEM culture medium added 10% fetal bovine serum (FBS), 1% sodium pyruvate and […] G418.
Uric acid solution labeled by ^14C.
1) the supernatant of cell culture was aspirated, and cells was washed with 10 mL PBS.
2) preheated trypsin was added into the cell culture flask, and the cell culture flask was rotated to make trypsin covering onto the bottom of cell culture flask equably.
3) the cells were suspended with 10-15 mL of culture medium in each T150 flask, took 0.1 mL of cell suspension and diluted it with two volumes of trypan blue solution to count the cells.
4) cells were diluted to 2.5×10^5/mL with the culture medium, and the diluted cells were added into a rat tail collagen-coated 24-well plate (800 uL/well, 2×10^5 cells/well). The plate was incubated overnight at 37° C. in a 5% CO2 incubator.
1) cells were seeded into 24-well plate, and supernatant was discarded after 16-18 h. The cells were washed twice using 600 ul HBSS buffer.
2) HBSS buffer was removed and 180 ul of HBSS buffer was added into each well again.
1) compounds were dissolved into 100% DMSO, and diluted into 6 concentration points by 3-fold dilution, or into 2 concentration points by 10-fold dilution, and the highest starting concentration was 50 mM.
2) 5 ul DMSO solution in step 1) was transferred into 120 ul of HBSS buffer to make a 25-fold dilution.
3) 10 ul diluted solution in step 2) was added into 24-well plate, and the plate was incubated for 15 min at 37° C. in a 5% CO2 incubator. The final concentration of DMSO is 0.2%. The control well contained 0.2% DMSO without compound.
^14C-labelled uric acid was diluted and added into plate, and the final concentration is 50 um. The plate was incubated for 10 min at 37° C. in a 5% CO2 incubator. After supernatant was discarded, cells were washed with HBSS buffer twice. Cells was lysed with 0.1M NaOH. And then cell lysis solution was collected into liquid scintillation tube and added with liquid scintillation solution. The signal was read by liquid scintillation counter Tri-Carb. e) data analysis URAT-1 inhibition by the treatment of the compounds was analyzed by calculating the percentage of inhibition. Non-linear fitting analysis of percent inhibition (inh %) data using GraphPad Prism software to generate the IC50 value.
As to `O=C(O)CSc1nnc(Br)n1-c1sc(C2CC2)c2c1CCCC2` [WX001], the concentration for half-maximal inhibition (IC50) (usually the concentration that gives 50% inhibition) is under 2 µM. Then `O=C(O)CSc1nncn1-c1sc(C2CC2)c2c1CCCC2` [WX002], with over 20 µM; and `O=C(O)CSc1nnc(Br)n1-c1sc(-c2ccccc2)c2c1CCCC2` [WX003], with 2 to 20 µM. The figure for `CC(Sc1nnc(Br)n1-c1sc(-c2ccccc2)c2c1CCCC2)C(=O)O` (stereo not shown) [WX004] is 2 to 20 µM.

On to `CC(C)(Sc1nnc(Br)n1-c1sc(-c2ccccc2)c2c1CCCC2)C(=O)O` [WX005], for which the IC50 was under 2 µM. The figure for `O=C(O)CSc1nnc(Br)n1-c1sc(-c2ccc(F)cc2)c2c1CCCC2` [WX006] is 2 to 20 µM; for `O=C(O)CSc1nnc(Br)n1-c1sc(-c2cccc(F)c2)c2c1CCCC2` [WX007] it is 2 to 20 µM. On to `O=C(O)CSc1nnc(Br)n1-c1sc(-c2ccc(F)c(F)c2)c2c1CCCC2` [WX008], for which the IC50 was in the range of 2 to 20 µM. The figure for `O=C(O)CSc1nnc(Br)n1-c1sc(-c2cc(F)cc(F)c2)c2c1CCCC2` [WX009] is under 2 µM; for `CC(C)(Sc1nnc(Br)n1-c1sc(-c2ccc(C(F)(F)F)cc2)c2c1CCCC2)C(=O)O` [WX010] it is 2 to 20 µM. The figure for `CC(C)(Sc1nnc(Br)n1-c1sc(-c2ccc(Cl)c(Cl)c2)c2c1CCCC2)C(=O)O` [WX011] is under 2 µM; for `COc1ccc(-c2sc(-n3c(Br)nnc3SC(C)C(=O)O)c3c2CCCC3)cc1Br` (stereo not shown) [WX012] it is under 2 µM. `CC(C)(Sc1nnc(Br)n1-c1sc(-c2ccc(F)c(F)c2)c2c1CCCC2)C(=O)O` [WX013]: the IC50 is under 2 µM. Then `CC(Sc1nnc(Br)n1-c1sc(-c2ccc(C(F)(F)F)cc2)c2c1CCCC2)C(=O)O` (stereo not shown) [WX014], with under 2 µM; and `CC(Sc1nnc(Br)n1-c1sc(-c2ccc(S(C)(=O)=O)cc2)c2c1CCCC2)C(=O)O` (stereo not shown) [WX015], with over 20 µM. Turning to `COc1ccc(-c2sc(-n3c(Br)nnc3SC(C)C(=O)O)c3c2CCCC3)cc1` (stereo not shown) [WX016], the IC50 was 2 to 20 µM. Then `COc1ccc(-c2sc(-n3c(Br)nnc3SCC(=O)O)c3c2CCCC3)cc1` [WX017], with 2 to 20 µM; and `CC(Sc1nnc(Br)n1-c1sc(-c2ccc(Cl)c(Cl)c2)c2c1CCCC2)C(=O)O` (stereo not shown) [WX018], with 2 to 20 µM; and `O=C(O)CSc1nnc(Br)n1-c1sc(-c2ccc(Cl)c(Cl)c2)c2c1CCCC2` [WX019], with 2 to 20 µM. Then `O=C(O)CSc1nncn1-c1sc(-c2cccc(F)c2)c2c1CCCC2` [WX020], with over 20 µM; and `O=C(O)CSc1nncn1-c1sc(-c2ccc(F)c(F)c2)c2c1CCCC2` [WX021], with over 20 µM. Then `O=C(O)CSc1nncn1-c1sc(-c2cc(F)cc(F)c2)c2c1CCCC2` [WX022], with over 20 µM.

Turning to `CN(C)c1ccc(-c2sc(-n3cnnc3SC(C)(C)C(=O)O)c3c2CCCC3)cc1Br` [WX023], the IC50 was in the range of 2 to 20 µM. For the compound `CNc1c(Br)cc(-c2sc(-n3cnnc3SC(C)(C)C(=O)O)c3c2CCCC3)cc1Br` [WX024], the IC50 fell in the range of 2 to 20 µM. For `CC(C)(Sc1nnc(Br)n1-c1sc(-c2ccncn2)c2c1CCCC2)C(=O)O` [WX025], the IC50 is over 20 µM. The figure for `CC(Sc1nnc(Br)n1-c1sc(C2CC2)c2c1CCCC2)C(=O)O` (stereo not shown) [WX026] is under 2 µM. Then `CC(C)(Sc1nnc(Br)n1-c1sc(C2CC2)c2c1CCCC2)C(=O)O` [WX027], with under 2 µM.

Take `CC(C)C(Sc1nnc(Br)n1-c1sc(C2CC2)c2c1CCCC2)C(=O)O` (stereo not shown) [WX028]: the IC50 was under 2 µM. As for `O=C(O)C1(Sc2nnc(Br)n2-c2sc(C3CC3)c3c2CCCC3)CCC1` [WX029], the IC50 was under 2 µM. For the compound `O=C(O)C1(Sc2nnc(Br)n2-c2sc(C3CC3)c3c2CCCC3)CCCC1` [WX030], the IC50 was under 2 µM. The figure for `C[C@@H](Sc1nnc(Br)n1-c1sc(C2CC2)c2c1CCCC2)C(=O)O` [WX031] is under 2 µM. Then `C[C@H](Sc1nnc(Br)n1-c1sc(C2CC2)c2c1CCCC2)C(=O)O` [WX032], with under 2 µM.

For `CC(C)(Sc1nnc(Br)n1-c1sc(C2CC2)c2c1CCC(F)(F)C2)C(=O)O` [WX033], the half-maximal inhibitory concentration (IC50) was under 2 µM. The figure for `CC1(C)CCc2c(C3CC3)sc(-n3c(Br)nnc3SC(C)(C)C(=O)O)c2C1` [WX034] is under 2 µM; for `CC1(C)CCc2c(-n3c(Br)nnc3SC(C)(C)C(=O)O)sc(C3CC3)c2C1` [WX035] it is under 2 µM; for `CC(Sc1nncn1-c1sc(C2CC2)c2c1CCCC2)C(=O)O` (stereo not shown) [WX036] it is over 20 µM. `O=C(O)CSc1nnc(Br)n1-c1sc(-c2ccccc2)c2c1CCC2` [WX037]: the IC50 is over 20 µM.

As to `O=C(O)CSc1nnc(Br)n1-c1sc(-c2ccc(F)cc2)c2c1CCC2` [WX038], the IC50 was over 20 µM. The figure for `O=C(O)CSc1nnc(Br)n1-c1sc(-c2cccc(F)c2)c2c1CCC2` [WX039] is over 20 µM; for `O=C(O)CSc1nnc(Br)n1-c1sc(-c2ccc(Cl)cc2)c2c1CCC2` [WX040] it is over 20 µM. Consider `O=C(O)CSc1nnc(Br)n1-c1sc(-c2ccc(Cl)c(Cl)c2)c2c1CCC2` [WX041], for which the IC50 is over 20 µM. The figure for `Cc1ccc(-c2sc(-n3c(Br)nnc3SCC(=O)O)c3c2CCC3)cc1` [WX042] is over 20 µM; for `COc1ccc(-c2sc(-n3c(Br)nnc3SCC(=O)O)c3c2CCC3)cc1` [WX043] it is over 20 µM; for `O=C(O)CSc1nnc(Br)n1-c1sc(-c2ccc(C(F)(F)F)cc2)c2c1CCC2` [WX044] it is over 20 µM.

Regarding `O=C(O)CSc1nnc(Br)n1-c1sc(-c2cccc(Cl)c2)c2c1CCC2` [WX045], the IC50 was over 20 µM. Then `CC(C)(C)c1ccc(-c2sc(-n3c(Br)nnc3SCC(=O)O)c3c2CCC3)cc1` [WX046], with over 20 µM; and `Cn1cc(-c2sc(-n3c(Br)nnc3SCC(=O)O)c3c2CCC3)cn1` [WX047], with over 20 µM. The figure for `CC(C)(C)c1ccc(-c2sc(-n3cnnc3SCC(=O)O)c3c2CCC3)cc1` [WX048] is over 20 µM. Then `COc1ccc(-c2sc(-n3cnnc3SCC(=O)O)c3c2CCC3)cc1` [WX049], with over 20 µM; and `Cc1ccc(-c2sc(-n3cnnc3SCC(=O)O)c3c2CCC3)cc1` [WX050], with over 20 µM. For the compound `O=C(O)CSc1nncn1-c1sc(-c2ccc(C(F)(F)F)cc2)c2c1CCC2` [WX051], the IC50 is over 20 µM. Then `O=C(O)CSc1nncn1-c1sc(-c2cccc(Cl)c2)c2c1CCC2` [WX052], with over 20 µM; and `CN(C)c1ccc(-c2sc(-n3cnnc3SCC(=O)O)c3c2CCC3)cc1` [WX053], with over 20 µM; and `O=C(O)CSc1nncn1-c1sc(-c2ccc(Cl)cc2)c2c1CCC2` [WX054], with over 20 µM. The figure for `O=C(O)CSc1nncn1-c1sc(-c2ccc(Cl)c(Cl)c2)c2c1CCC2` [WX055] is over 20 µM; for `Cn1cc(-c2sc(-n3cnnc3SCC(=O)O)c3c2CCC3)cn1` [WX056] it is over 20 µM; for `CN(C)c1ccc(-c2sc(-n3cnnc3SCC(=O)O)c3c2CCC3)cc1Br` [WX057] it is 2 to 20 µM.

`O=C(O)CSc1nnc(Br)n1-c1sc(C2CC2)c2c1CCC2` [WX058]: the IC50 is over 20 µM. Then `O=C(O)C1(Sc2nnc(Br)n2-c2sc(C3CC3)c3c2CCC3)CCC1` [WX059], with under 2 µM; and `O=C(O)C1(Sc2nnc(Br)n2-c2sc(C3CC3)c3c2CCC3)CCCC1` [WX060], with under 2 µM. For the compound `CC(Sc1nnc(Br)n1-c1sc(C2CC2)c2c1CCC2)C(=O)O` (stereo not shown) [WX061], the IC50 was under 2 µM.

As to `CC(C)(Sc1nnc(Br)n1-c1sc(C2CC2)c2c1CCC2)C(=O)O` [WX062], the IC50 is under 2 µM.

Regarding `CCC(C)(Sc1nnc(Br)n1-c1sc(C2CC2)c2c1CCC2)C(=O)O` (stereo not shown) [WX063], the IC50 was under 2 µM. `O=C(O)C(Sc1nnc(Br)n1-c1sc(C2CC2)c2c1CCC2)c1ccccc1` (stereo not shown) [WX064]: the IC50 was 2 to 20 µM. Then `CC1(C)Cc2c(C3CC3)sc(-n3c(Br)nnc3SC(C)(C)C(=O)O)c2C1` [WX065], with under 2 µM; and `CC1(C)Cc2c(C3CC3)sc(-n3c(Br)nnc3SC3(C(=O)O)CCC3)c2C1` [WX066], with under 2 µM; and `CC(C)(Sc1nnc(Br)n1-c1cc(Cl)c(C2CC2)s1)C(=O)O` [WX067], with under 2 µM. Then `O=C(O)C1(Sc2nnc(Br)n2-c2cc(Cl)c(C3CC3)s2)CCC1` [WX068], with 2 to 20 µM. For `O=C(O)C1(Sc2nnc(Br)n2-c2cc(Cl)c(C3CC3)s2)CCCC1` [WX069], the IC50 was under 2 µM. Regarding `CC(Sc1nnc(Br)n1-c1cc(Cl)c(C2CC2)s1)C(=O)O` (stereo not shown) [WX070], the IC50 lay in the range of 2 to 20 µM.
